{"source": "patent US8648105B2", "about": "“Diarylthiohydantoin compounds” (The Regents of the University of California, priority 2006, dated 2014)", "key": {"[1]": {"tested_on": "AR-overexpressed LNCaP xenograft tumors", "test": "AR-overexpressed LNCaP xenograft model in castrated SCID mice", "format": "in vivo", "method": "FIG. 7 is a graph of tumor size. AR overexpressing LNCaP cells were injected in the flanks of castrated SCID mice, subcutaneously. When tumors reached about 100 cubic mm, they were randomized into five groups. Each group had nine animals. […]. The tumors were measured three-dimensionally, width, length and depth, using a caliper.\nFIG. 8 depicts experimental results of tumor size. At day 18, the animals were imaged via an optical CCD camera, 3 hours after last dose of treatment. A ROI was drawn over the tumor for luciferase activity measurement in photon/second. The right panels is a representation of the ROIs measurements.\nCompounds of the invention are used to examine if the diaryihydantoin derivatives have in vivo effects on hormone refractory prostate cancer. First we examine this compound on xenograft tumors established from AR-overexpressed LNCaP cells. Engineered cells in Matrigel (Collaborative Biomedical) are injected subcutaneously into the flanks of the castrated male SCID mice. Tumor size is measured weekly in three dimensions using calipers. After xenograft tumors established (tumor size at least 40 mm^3), mice with tumors are randomized and treated with different doses of compounds orally once daily. The inhibitory effect on growth of AR-overexpressed LNCaP xenograft model is studied as follows. Mice with established LN-AR xenograft tumors are randomized and treated with indicated compounds orally once daily. Tumor size are measured by caliber.\nAll animal experiments were performed in compliance with the guidelines of the Animal Research Committee of the University of California at Los Angeles. Animals were bought from Taconic and maintained in a laminar flow tower in a defined flora colony. LNCaP-AR and LNCaP-vector cells were maintained in RPMI medium supplemented with 10% FBS. 10^6 cells in 100 μl of 1:1 Matrigel to RPMI medium were injected subcutaneously into the flanks of intact or castrated male SCID mice. Tumor size was measured weekly in three dimensions (length×width×depth) using calipers. Mice were randomized to treatment groups when tumor size reached approximately 100 mm^3. Drugs were given orally every day at 10 mg/kg and 50 mg/kg. To obtain pharmacodynamic readout, the animals were imaged via an optical CCD camera, 3 hours after last dose of the treatment. A ROI is drawn over the tumor for luciferase activity measurement in photon/second. The right panels were a representation of the ROIs measurements. […]"}, "[2]": {"tested_on": "hormone refractory LAPC4 xenograft", "test": "Hormone refractory LAPC4 xenograft model", "format": "in vivo, mice", "method": "Compounds of the invention are also tested in another xenograft model of hormone refractory prostate cancer, hormone refractory LAPC4. This model was established from passaging of hormone sensitive prostate cancer in castrated mice, which mimics the clinical progression of prostate cancer (2). […]."}, "LogP": {"test": "LogP", "format": "physicochemical"}, "urogenital tract": {"tested_on": "urogenital tract", "test": "Luciferase transgenic mice with testosterone pellet, urogenital tract weight and photon emission (FIG. 22)", "format": "in vivo", "settings": "castrated mice with testosterone pellet, 10 mg/kg per day, 14 days", "method": "FIG. 22 presents results of an experiment conducted with wild type nontransgenic mice (WT), castrated luciferase transgenic mice (Cast), and non-castrated luciferase transgenic mice (Intact). Data are shown for castrated luciferase transgenic mice treated with an implanted testosterone pellet yielding 12.5 mg per kilogram body weight with a 90 day release period (T/Cast), and data are shown for non-castrated luciferase transgenic mice treated with an implanted testosterone pellet yielding 12.5 mg per kilogram body weight with a 90 day release period (Intact+T). […]. (A) Urogenital tract weight at 14 days. (B) Photon emission rate at 14 days. In all cases, a hormone refractory disease state was not induced.\n[…]. Moreover, the higher the dose, the lower the PSA level. […]. The weight and rate of photon emission increased for both intact and castrated mice."}, "[3]": {"tested_on": "LNCaP hormone sensitive xenograft", "test": "LNCaP hormone sensitive xenograft model", "description": "Each set included 6 mice. The mice were treated with 10 mg/kg per day."}, "1AR cell line": {"tested_on": "1AR cell line", "test": "Luciferase activity in the 1AR cell line", "format": "cell-based", "settings": "1.25 to 10 μmol", "source_text": "(§1) NC4 differs from NC3 only in that an amino group is substituted for a hydroxyl group. […] The effect of NC3 and NC4 on luciferase activity in the 1AR cell line was studied by administering various compounds at concentrations ranging from 1.25 to 10 μmol and observing PSA levels. […] The effect of NC3 and NC4 on luciferase activity in the 4AR cell line was studied by administering various compounds at concentrations ranging from 1.25 to 10 μmol and observing luciferase activity. […] The effect of NC3 and NC4 on PSA levels in the LN/AR cell line was studied by administering various compounds at concentrations ranging from 1.25 to 10 μmol and observing luciferase activity."}, "4AR cell line": {"tested_on": "4AR cell line", "test": "Luciferase activity in the 4AR cell line", "format": "cell-based", "settings": "1.25 to 10 μmol", "source_text": "as §1"}, "AR": {"molecular_target": "T1, AR (Homo sapiens, UniProt P10275)", "T1 sequence (P10275 1-920)": "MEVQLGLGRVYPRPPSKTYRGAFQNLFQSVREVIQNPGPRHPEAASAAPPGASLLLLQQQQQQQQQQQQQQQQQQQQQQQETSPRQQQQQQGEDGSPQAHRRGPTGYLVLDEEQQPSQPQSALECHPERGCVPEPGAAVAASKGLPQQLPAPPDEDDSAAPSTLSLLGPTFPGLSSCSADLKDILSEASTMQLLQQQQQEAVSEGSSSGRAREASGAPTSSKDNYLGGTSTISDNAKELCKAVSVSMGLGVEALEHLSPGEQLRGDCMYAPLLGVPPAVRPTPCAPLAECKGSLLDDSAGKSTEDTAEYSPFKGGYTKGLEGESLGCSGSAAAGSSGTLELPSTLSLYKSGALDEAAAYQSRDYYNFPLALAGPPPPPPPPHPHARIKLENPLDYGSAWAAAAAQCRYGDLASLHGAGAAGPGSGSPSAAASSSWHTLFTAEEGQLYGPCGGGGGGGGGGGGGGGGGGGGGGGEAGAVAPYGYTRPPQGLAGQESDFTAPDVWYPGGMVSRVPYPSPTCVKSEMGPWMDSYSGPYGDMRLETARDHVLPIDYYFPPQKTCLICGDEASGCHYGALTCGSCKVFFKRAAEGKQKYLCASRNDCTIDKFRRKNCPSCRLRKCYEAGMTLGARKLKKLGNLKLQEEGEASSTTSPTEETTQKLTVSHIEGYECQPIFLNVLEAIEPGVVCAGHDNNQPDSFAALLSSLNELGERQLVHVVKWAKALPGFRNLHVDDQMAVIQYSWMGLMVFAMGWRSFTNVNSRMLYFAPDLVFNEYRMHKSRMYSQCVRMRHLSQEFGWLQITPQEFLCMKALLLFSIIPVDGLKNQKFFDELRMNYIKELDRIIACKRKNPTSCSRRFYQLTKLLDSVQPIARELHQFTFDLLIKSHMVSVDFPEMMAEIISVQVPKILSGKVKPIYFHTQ", "format": "cell-based", "parameters": "Fold induction, AR response reporter", "settings": "LN/AR cell line, 1.25 to 10 μmol", "method": "It is well established that PSA levels are indicators of AR activities in prostate cancer. […] The LNCaP-AR cells are a line of lymph node carcinoma of prostate cells transduced with a plasmid that makes express androgen receptors. […] After four days incubation, secreted PSA levels were assayed using PSA ELISA kits (American Qualex, San Clemente, Calif.)"}}, "note": "“Also recorded” adds a separate entry of the source.", "data": [{"smiles": "CC(O)(CS(=O)(=O)c1ccc(F)cc1)C(=O)Nc1ccc(C#N)c(C(F)(F)F)c1", "note": "(stereo not shown) [Bicalutamide, N-[4-cyano-3-(trifluoromethyl)phenyl]-3-[(4-fluorophenyl)sulfonyl]-2-hydroxy-2-methylpropanamide, reference compound]", "values": [{"measurement": "photon emission associated with luciferase activity", "setting": "[1]; FIG. 8, day 18, relative to vehicle", "result": "remained about the same or increased"}, {"measurement": "tumor growth / tumor volume", "setting": "[1]; oral once daily, FIG. 7: 10 or 50 mg/kg, 18 days", "result": "did not inhibit growth; also recorded: tumors continued to grow"}, {"measurement": "growth and PSA expression", "setting": "[2]", "result": "did not inhibit growth and PSA expression"}, {"measurement": "logP", "setting": "LogP", "result": 2.91}, {"measurement": "urogenital tract weight and photon emission", "setting": "urogenital tract", "result": "decrease in weight and photon emission"}, {"measurement": "rate of tumor growth (tumor volume)", "setting": "[3]; 10 mg/kg per day, FIG. 6", "result": "slower than mice treated with vehicle solution"}, {"measurement": "PSA levels", "setting": "[3]; FIG. 16, relative to vehicle solution", "result": "stayed the same or increased"}]}, {"smiles": "CC1(C)C(=O)N(c2ccc(C#N)c(C(F)(F)F)c2)C(=S)N1c1ccc(O)cc1", "note": "[NC3, 4-[3-(4-hydroxyphenyl)-4,4-dimethyl-5-oxo-2-thioxoimidazolidin-1-yl]-2-trifluoromethylbenzonitrile]", "values": [{"measurement": "luciferase activity (comparison)", "setting": "1AR cell line", "result": "less than the luciferase activity upon exposure to NC4"}, {"measurement": "luciferase activity (comparison)", "setting": "4AR cell line", "result": "less than the luciferase activity upon exposure to NC4"}, {"measurement": "PSA level (comparison)", "setting": "AR", "result": "less than the PSA level upon exposure to NC4"}]}]}
